What was measured:
[1] = target: PDE10A (Homo sapiens (Human), UniProt Q9Y233); test: Measurement of PDE activity (HTRF cAMP kit, recombinant PDE); assay type: biochemical; conditions: recombinant PDE10, 20 nM cyclic nucleotide substrate, 60 minutes at 29 C
Protocol: The recombinant PDE proteins are used in in vitro enzymatic reaction for measurement of PDE activity. These recombinant proteins, including PDE10A (human, rat and mouse PDE10) and isoforms of PDEs 1, 3, 4, and 5, were purchased from commercial vendor BPS Bioscience. The enzymatic activity of PDEs was determined by cAMP measurement kit from CisBio (IBA) using HTRF technology.
The PDE enzymatic reaction was carried out in assay buffer (20 mM Tris-HCl pH7.5, 10 mM MgCl2, 0.1% bovine serum albumin) containing enzyme and substrate. […] The substrate cyclic nucleotide (cAMP or cGMP) concentration used in the assay was 20 nM for PDE10, and 100 nM for other PDEs. The inhibitory effect of compound was determined by incubating various concentration of inhibitor in the enzymatic assay. […] Next, the compound at varying concentration was mixed with PDE enzyme. The reaction was initiated by addition of cyclic nucleotide substrate, and incubated for 60 minutes at 29 C. The reaction was stopped by addition of lysis buffer from assay kit. The cAMP-d2 and anti-cAMP cryptate in the lysis buffer detected the level of cAMP left from the PDE hydrolysis reaction. […] Thus, IC50 value of inhibitor can be obtained by plotting inhibitor concentration against PDE activity at that concentration.

[2] = Microsomal half-life / microsomal clearance, human liver microsomes; assay type: in vitro ADME; conditions: 0.5 μM test substance, 0.25 mg microsomal protein/ml, pH 7.4, 37° C.
Protocol: (§1) The metabolic stability of the compounds of the invention was determined in the following assay.
(§2) The test substances were incubated in a concentration of 0.5 μM as follows:
(§3) 0.5 μM test substance are preincubated together with liver microsomes from different species (from rat, human or other species) (0.25 mg of microsomal protein/ml) in 0.05 M potassium phosphate buffer of pH 7.4 in microtiter plates at 37° C. for 5 min. The reaction is started by adding NADPH (1 mg/mL). After 0, 5, 10, 15, 20 and 30 min, 50 μl aliquots are removed, and the reaction is immediately stopped and cooled with the same volume of acetonitrile. The samples are frozen until analyzed. The remaining concentration of undegraded test substance is determined by MSMS. The half-life (T1/2) is determined from the gradient of the signal of test substance/unit time plot, it being possible to calculate the half-life of the test substance, assuming first order kinetics, from the decrease in the concentration of the compound with time. The microsomal clearance (mCl) is calculated from mCl=ln 2/T1/2/(content of microsomal protein in mg/ml)×1000 [ml/min/mg] (modified from references: Di, The Society for Biomoleculur Screening, 2003, 453-462; Obach, DMD, 1999 vol 27. N 11, 1350-1359).

[3] = Microsomal half-life / microsomal clearance, rat liver microsomes; assay type: in vitro ADME; conditions: 0.5 μM test substance, 0.25 mg microsomal protein/ml, pH 7.4, 37° C.
Protocol: as §1, §2, §3

Sequence of PDE10A (Q9Y233 whole entry, species assumed, canonical isoform): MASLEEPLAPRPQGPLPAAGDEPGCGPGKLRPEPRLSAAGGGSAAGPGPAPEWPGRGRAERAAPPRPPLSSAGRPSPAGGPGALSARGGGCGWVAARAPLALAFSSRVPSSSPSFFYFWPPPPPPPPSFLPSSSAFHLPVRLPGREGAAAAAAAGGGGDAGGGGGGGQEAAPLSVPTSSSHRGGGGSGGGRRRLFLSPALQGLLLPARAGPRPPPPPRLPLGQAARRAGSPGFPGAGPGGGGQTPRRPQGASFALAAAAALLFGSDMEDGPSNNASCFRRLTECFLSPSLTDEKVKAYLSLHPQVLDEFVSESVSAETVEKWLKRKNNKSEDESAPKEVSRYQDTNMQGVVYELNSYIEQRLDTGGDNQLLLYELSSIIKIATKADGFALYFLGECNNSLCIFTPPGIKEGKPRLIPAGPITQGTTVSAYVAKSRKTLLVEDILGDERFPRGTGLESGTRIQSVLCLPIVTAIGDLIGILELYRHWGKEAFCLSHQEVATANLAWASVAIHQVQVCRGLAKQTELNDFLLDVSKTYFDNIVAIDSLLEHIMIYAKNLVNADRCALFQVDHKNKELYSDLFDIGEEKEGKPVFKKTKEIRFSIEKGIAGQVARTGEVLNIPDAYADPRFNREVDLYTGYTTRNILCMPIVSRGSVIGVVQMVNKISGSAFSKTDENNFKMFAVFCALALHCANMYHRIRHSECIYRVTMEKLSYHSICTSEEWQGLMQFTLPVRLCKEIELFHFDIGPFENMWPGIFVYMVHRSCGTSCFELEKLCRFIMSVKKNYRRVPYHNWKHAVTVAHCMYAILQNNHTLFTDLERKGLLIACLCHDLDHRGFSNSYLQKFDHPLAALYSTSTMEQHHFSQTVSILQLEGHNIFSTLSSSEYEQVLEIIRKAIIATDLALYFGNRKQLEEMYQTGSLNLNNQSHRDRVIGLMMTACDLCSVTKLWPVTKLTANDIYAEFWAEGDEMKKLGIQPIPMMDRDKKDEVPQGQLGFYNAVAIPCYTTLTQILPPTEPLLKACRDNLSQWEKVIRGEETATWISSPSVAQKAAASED

Row | Compound | IC50 [1] | Human mCl [2] | Rat mCl [3]
1 | Cc1ccnc(C#Cc2ccc(-c3nn(C)cc3-c3ccncc3)cc2)c1 [Example 8, 4-Methyl-2-((4-(1-methyl-4-(pyridin-4-yl)-1H-pyrazol-3-yl)phenyl)ethynyl)pyridine] | < 100 nM | ++ (<100 μl min^−1 mg^−1) | ++ (<100 μl min^−1 mg^−1)
2 | Cc1cccc(C#Cc2ccc(-c3nn(C)cc3-c3cncnc3)cc2)n1 [Example 25, 5-[1-methyl-3-[4-[2-(6-methyl-2-pyridyl)ethynyl]phenyl]pyrazol-4-yl]pyrimidine] | 100 to 200 nM |  | 
3 | Cn1cc(-c2ccncc2)c(-c2ccc(C#Cc3ccc4ncccc4n3)cc2)n1 [Example 13, 2-[2-[4-[1-methyl-4-(4-pyridyl)pyrazol-3-yl]phenyl]ethynyl]-1,5-naphthyridine] | < 100 nM | ++ (<100 μl min^−1 mg^−1) | ++ (<100 μl min^−1 mg^−1)
4 | Cn1cc(-c2ccncc2)c(-c2ccc(C#Cc3ccc(F)cn3)cc2)n1 [Example 5, 5-Fluoro-2-((4-(1-methyl-4-(pyridin-4-yl)-1H-pyrazol-3-yl)phenyl)ethynyl)pyridine] | < 100 nM | ++ (<100 μl min^−1 mg^−1) | ++ (<100 μl min^−1 mg^−1)
5 | Cc1ccc(C#Cc2ccc(-c3nn(C)cc3-c3ccncc3)cc2)nc1 [Example 3, 5-methyl-2-((4-(1-methyl-4-(pyridin-4-yl)-1H-pyrazol-3-yl)phenyl)ethynyl)pyridine] | < 100 nM | ++ (<100 μl min^−1 mg^−1) | ++ (<100 μl min^−1 mg^−1)
6 | Cc1cccc(C#Cc2ccc(-c3c(-c4ccncc4)nc4n3CCC4)cc2)n1 [Example 23, 3-[4-[2-(6-methyl-2-pyridyl)ethynyl]phenyl]-2-(4-pyridyl)-6,7-dihydro-5H-pyrrolo[1,2-a]imidazole] | 100 to 200 nM | ++ (<100 μl min^−1 mg^−1) | ++ (<100 μl min^−1 mg^−1)
7 | Cn1cc(-c2ccncc2)c(-c2ccc(C#Cc3ccc4cc[nH]c4n3)cc2)n1 [Example 15, 6-[2-[4-[1-methyl-4-(4-pyridyl)pyrazol-3-yl]phenyl]ethynyl]-1H-pyrrolo[2,3-b]pyridine] | < 100 nM | ++ (<100 μl min^−1 mg^−1) | ++ (<100 μl min^−1 mg^−1)
8 | COc1cc(-c2nn(C)cc2-c2ccncc2)ccc1C#Cc1cccc(C)n1.O=C(O)C(F)(F)F [Example 32, 2-[2-[2-methoxy-4-[1-methyl-4-(4-pyridyl)pyrazol-3-yl]phenyl]ethynyl]-6-methylpyridine; 2,2,2-trifluoroacetic acid] | < 100 nM | ++ (<100 μl min^−1 mg^−1) | + (100-220 μl min^−1 mg^−1)
9 | Cc1cccc(C#Cc2c(-c3ccncc3)nc3n2CCC3)n1.O=C(O)C(F)(F)F [Example 19, 3-[2-(6-methyl-2-pyridyl)ethynyl]-2-(4-pyridyl)-6,7-dihydro-5H-pyrrolo[1,2-a]imidazole; 2,2,2-trifluoroacetic acid] |  | + (100-220 μl min^−1 mg^−1) | + (100-220 μl min^−1 mg^−1)
10 | Cc1cccc(C#Cc2ccc(-c3nn(C)cc3-c3ccnnc3)cc2)n1 [Example 28, 4-[1-methyl-3-[4-[2-(6-methyl-2-pyridyl)ethynyl]phenyl]pyrazol-4-yl]pyridazine] | < 100 nM |  | 
11 | COc1cccc(C#Cc2ccc(-c3nn(C)cc3-c3ccncc3)cc2)n1.O=C(O)C(F)(F)F [Example 20, 2-methoxy-6-[2-[4-[1-methyl-4-(4-pyridyl)pyrazol-3-yl]phenyl]ethynyl]pyridine; 2,2,2-trifluoroacetic acid] | < 100 nM | ++ (<100 μl min^−1 mg^−1) | ++ (<100 μl min^−1 mg^−1)
12 | Cn1cc(-c2ccncc2)c(-c2ccc(C#Cc3cn4ccccc4n3)cc2)n1 [Example 14, 2-[2-[4-[1-methyl-4-(4-pyridyl)pyrazol-3-yl]phenyl]ethynyl]imidazo[1,2-a]pyridine] | < 100 nM | ++ (<100 μl min^−1 mg^−1) | ++ (<100 μl min^−1 mg^−1)
13 | CCCn1cc(C#Cc2ccc(-c3nn(C)cc3-c3ccncc3)cc2)cn1 [Example 4, 4-(1-methyl-3-(4-((1-propyl-1H-pyrazol-4-yl)ethynyl)phenyl)-1H-pyrazole-4-yl)pyridine] |  | ++ (<100 μl min^−1 mg^−1) | 
14 | Cc1cccc(C#Cc2ccc(-c3nn(C)cc3-c3cccnc3)cc2)n1.O=C(O)C(F)(F)F [Example 29, 2-methyl-6-[2-[4-[1-methyl-4-(3-pyridyl)pyrazol-3-yl]phenyl]ethynyl]pyridine; 2,2,2-trifluoroacetic acid] | 200 to 500 nM | ++ (<100 μl min^−1 mg^−1) | ++ (<100 μl min^−1 mg^−1)
15 | COc1cccnc1C#Cc1ccc(-c2nn(C)cc2-c2ccncc2)cc1 [Example 21, 3-methoxy-2-[2-[4-[1-methyl-4-(4-pyridyl)pyrazol-3-yl]phenyl]ethynyl]pyridine] | < 100 nM | ++ (<100 μl min^−1 mg^−1) | ++ (<100 μl min^−1 mg^−1)
16 | Cn1cc(-c2ccncc2)c(-c2ccc(C#Cc3cnc4ccccc4n3)cc2)n1.O=C(O)C(F)(F)F [Example 18, 2-[2-[4-[1-methyl-4-(4-pyridyl)pyrazol-3-yl]phenyl]ethynyl]quinoxaline; 2,2,2-trifluoroacetic acid] | < 100 nM | ++ (<100 μl min^−1 mg^−1) | ++ (<100 μl min^−1 mg^−1)
17 | COc1ccc(-c2cn(C)nc2-c2ccc(C#Cc3cccc(C)n3)cc2)cc1 [Example 31, 2-[2-[4-[4-(4-methoxyphenyl)-1-methyl-pyrazol-3-yl]phenyl]ethynyl]-6-methylpyridine; 2,2,2-trifluoroacetic acid] | 100 to 200 nM |  | 
18 | Cc1cccc(C#Cc2ccc(-c3nn(C)cc3-c3ccnn3C)cc2)n1.Cl [Example 27, 2-methyl-6-[2-[4-[1-methyl-4-(2-methylpyrazol-3-yl)pyrazol-3-yl]phenyl]ethynyl]-pyridine hydrochloride] | 100 to 200 nM | ++ (<100 μl min^−1 mg^−1) | + (100-220 μl min^−1 mg^−1)
19 | Cc1cc(C#Cc2ccc(-c3nn(C)cc3-c3ccncc3)cc2)nc2ccccc12 [Example 16, 4-methyl-2-[2-[4-[1-methyl-4-(4-pyridyl)pyrazol-3-yl]phenyl]ethynyl]quinoline] | < 100 nM | ++ (<100 μl min^−1 mg^−1) | ++ (<100 μl min^−1 mg^−1)
20 | Cn1cc(-c2ccncc2)c(-c2ccc(C#Cc3nccs3)cc2)n1.O=C(O)C(F)(F)F [Example 17, 2-[2-[4-[1-methyl-4-(4-pyridyl)pyrazol-3-yl]phenyl]ethynyl]thiazole; 2,2,2-trifluoroacetic acid] | 100 to 200 nM | ++ (<100 μl min^−1 mg^−1) | ++ (<100 μl min^−1 mg^−1)
21 | Cn1cc(-c2ccncc2)c(-c2ccc(C#Cc3nccn3C)cc2)n1 [Example 7, 4-(1-methyl-3-(4-((1-methyl-1H-imidazol-2-yl)ethynyl)phenyl)-1H-pyrazole-4-yl)pyridine] | < 100 nM | ++ (<100 μl min^−1 mg^−1) | ++ (<100 μl min^−1 mg^−1)
22 | Cc1cccc(C#Cc2ccc(-c3nn(C)cc3-c3ccncc3)cc2)n1 [Example 9, 2-Methyl-6-((4-(1-methyl-4-(pyridin-4-yl)-1H-pyrazol-3-yl)phenyl)ethynyl)pyridine] | < 100 nM | ++ (<100 μl min^−1 mg^−1) | ++ (<100 μl min^−1 mg^−1)

Source: US9790203B2, “Inhibitor compounds of phosphodiesterase type 10A” (ABBVIE DEUTSCHLAND GMBH & CO. KG, priority 2012, dated 2017)
